Entries after “also recorded” stand apart in the source; their conditions may differ.
Experiments:
[1] = tested on: ovariectomized Wistar rats with osteoporosis; assay: resistance to compression of the 5th lumbar vertebra, ovariectomized osteoporotic rat model; format: in vivo, Wistar rats (Rattus norvegicus); settings: 20-50 μg/kg i.p. daily for 90 days, started 5 months after ovariectomy; end of treatment
Method: FIG. 12 corresponds to a graph showing the resistance to compression of the vertebral body of the 5th lumbar vertebra obtained from Wistar rats at the end of the 90-day experimental period, 5 months after ovariectomy. Resistance Tests were performed using an Inströn Universal Testing Machine (mod. 5567) in the body of the 5th lumbar vertebra compressed at a speed of 1 mm/min up to achieve sample fracture. The exerted force is expressed in N/mm^2. […].
(§1) We used 48 female rats of the Wistar strain, 3 months of age, with a weight of 250±20 gr. The animals were acclimated for 14 days at an ambient temperature of 22° C. with a photoperiod of 12 hours and relative humidity of 50%; food and water were ad libitum. The rats were sedated with acepromazine maleate (Relax 0.5 g/100 ml) at a dose of 20 μg/Kg of weight and as general anesthetic, tiletamine and zolazepam were used at a concentration of 25 mg/kg of weight.
Anesthetic maintenance was performed with constant flow of isoflurane. Once the rats were anesthetized we proceeded to perform the bilateral ovariectomy procedure for what the anesthetized rat was placed in lateral decubitus and shaved from the last rib forming a rectangle of approximately 4×3 cm. […] The 5th dorsal vertebra of the rats was analyzed by means of computed micro tomography (μCT) prior to euthanasia with CO2 on day 90 of treatment. […]

[2] = tested on: ovariectomized Wistar rats with osteoporosis; assay: bone microarchitecture by histology (Masson's trichrome) and μCT, ovariectomized osteoporotic rat model; format: in vivo, Wistar rats (Rattus norvegicus); settings: 20-50 μg/kg i.p. daily 90 days; for μCT three-dimensional reconstruction of 5th lumbar vertebra / histology of femur epiphysis microarchitecture: 5 months after ovariectomy; for histology of femur epiphysis microarchitecture: Masson's trichrome; for histology of the body of the 5th lumbar vertebra: transverse and sagittal planes
Method: In FIGS. 5 and 6 histological sections of 5 μm thick and stained with Masson's Trichromic stain may be observed in which the microarchitecture of the epiphysis of the femur of the Wistar rats is analyzed in detail. Letter (A) of both figures corresponds to the group with no treatment which is the healthy control group. In the histological section stained with Masson's Trichromic stain, normal microarchitecture of the femoral epiphysis is observed with the cancellous bone and medullar spaces filled with bone marrow and bone occupying inter-medullar spaces. The epiphyseal plate and articular cartilage are also observed. […] Treatment with the vehicle lasted 90 days. […] These spaces have variable sizes. Articular cartilage and epiphyseal plate are also noted. […] Microphotography showing the microarchitecture of the femur epiphysis of Wistar rats. […] Articular cartilage and epiphyseal plate are also observed.
In FIGS. 7 and 8, microphotographs of histological sections of 5 μm thick of the 5th lumbar vertebra in the transverse and sagittal plane stained with Masson's Trichromic stain. Panel (A) of FIGS. 7 and 8 corresponds to the body of the 5th lumbar vertebra in the transverse (a) and sagittal (a′) planes of normal Wistar rats where cortical bone, bone trabeculate and spaces filled with bone marrow may be observed. Panel (B) of FIGS. 7 and 8 corresponds to the body of the 5th lumbar vertebra in the transverse (b) and sagittal (b′) planes of osteoporotic Wistar rats treated with physiological saline solution where cortical bone and bone trabeculate are observed with lesser width than the one of healthy Wistar rats. Medullar spaces are also observed and they are filled with fatty tissue with larger areas than those found in healthy controls.
as §1
Anesthetic maintenance was performed with constant flow of isoflurane. Once the rats were anesthetized we proceeded to perform the bilateral ovariectomy procedure for what the anesthetized rat was placed in lateral decubitus and shaved from the last rib forming a rectangle of approximately 4×3 cm. This area is disinfected with an electrolyzed super oxidant solution with neutral pH (Veteribac). Then a linear incision of approximately 2 cm up was performed with a scalpel to reach the muscle and expose the abdominal cavity. With extreme care, the cervix was located and identified. The cervix was ligated exactly on its middle portion with 6/0 polyglycolic acid sutures and subsequently the ovaries were eliminated with a scalpel. It was sutured by planes (abdominal muscles and skin) with 4/0 polyglycolic acid sutures and finally, the surgical area was cleaned with hydrogen peroxide. The rats were maintained in vivarium conditions during 5 months with 12 hours of light and 12 hours of darkness, at an average temperature of 22° C. with food and water ad libitum. […] Once this period concluded, 32 ovariectomized rats were divided into 4 groups of 8 rats each. […] The control group of osteoporotic rats […] was treated with physiological saline solution (pH 7.4) for 90 days. The healthy control group (16) rats received no treatment at all. Blood was obtained from all groups at the beginning and end of treatment (90 days). The 5th dorsal vertebra of the rats was analyzed by means of computed micro tomography (μCT) prior to euthanasia with CO2 on day 90 of treatment. The femur and 5th dorsal vertebrae were obtained, fixed in 10% paraformaldehyde and embedded in paraffin. […]

[3] = tested on: Human Osteoblasts derived from alveolar bone; assay: MTT cytotoxicity and cell proliferation assay; format: cell-based; settings: 5 μg/ml, 4 days, medium with 0.5% fetal bovine serum
Method: The cytotoxic effect and the effect on cell proliferation was assessed by means of the MTT colorimetric assay (tetrazolium) [3-(4,5-dimethylthazol-2-yl)-2,5-diphenyl tetrazoliumbromide], during 1, 2, 3 and 4 days. Human Osteoblasts derived from alveolar bone were planted at a density of 1×10^4 in plates of 96 wells. The cells were treated with the peptides (independently) for 4 days with concentrations of 1, 3 and 5 μg/ml of each of the peptides. The medium was replaced daily, and the peptides administered in the same way. The controls used were medium with fetal bovine serum at 10% (positive control) and medium with fetal bovine serum at 0.5% (negative control.) the peptides were administered at the various concentrations contained in the medium at 0.5%. At the end of each day of treatment, 10 μL of MTT (3-(4,5-dimethylthiazol-2-yl)-2,5-diphenyltetrazolium bromide) solution (5 mg/mL) was added to the wells and incubated for 3 hours. At the end the supernatant was removed and extraction was carried out by means of DMSO for 1 hour at 37° C. The optical density of the supernatant was read in a reader for ELISA at 570 nm. The optical density reflects the number of living cells present in the culture. […] The peptide […] (SEQ ID NO: 2) at a 5 μg/ml concentration promotes cell proliferation to a 92% with respect to the positive control (10% fetal bovine serum) (B).

[4] = tested on: critical-size calvarial defect in Wistar rats; assay: regeneration of critical-size calvarial defect with peptide in gelatin sponge scaffold; format: in vivo; settings: 20-50 μg peptide per gelatin sponge (Gelfoam) disk, 9 mm defect, after 16 weeks
Excerpt: These peptides have been artificially synthesized and then combined with a three-dimensional scaffold made of gelatin (gelatin sponge), thus it was used for regeneration of critical size bone defects in an animal model: two groups of 14 male Wistar rats of approximately 250±20 grams of weight were used. Anesthesia of the rats was achieved through intraperitoneal injection of ketamine. The critical size defect was done by performing a 3 cm incision in the calvarial bone and then lifting a mucoperiostial flap. Subsequently, with a 9 mm trephine, a defect was created in the rat's calvarial bone. In the experimental group the formulation was introduced. It consisted of a 9 mm-diameter, porous, three-dimensional, gelatin-based (Gelfoam) disk containing the peptide at a concentration of 20-50 μg/disk. Previously, the dimensional scaffold (gelatin sponge) was incubated with a concentration of the corresponding peptide at 20-50 μg/disk of gelatin sponge and was vacuum dried. Control animals were treated only with a disk of gelatin sponge and a vehicle for re-suspension of the peptide (phosphate buffer pH 7.4) and another group remained without treatment. Blood supply is ensured at the surgical site. The operation site was sealed with Satin S-100, which consists primarily in gelatin. At the end of 16 weeks, the tissues were fixed with 10% formaldehyde and embedded in paraffin. […]

[5] = tested on: ovariectomized Wistar rats with osteoporosis; assay: histology of liver, kidney, heart, lung, brain, spleen, muscle after 90 days of peptide administration; format: in vivo, Wistar rats (Rattus norvegicus); settings: 20-50 μg/kg i.p. for 90 days
Method: The control tissues in Panel (A) correspond to: normal tissues: L=liver, K=kidney, H=heart, Lu=lung, B=brain, M=muscle, S=spleen. Panel B) tissues of Wistar rats with osteoporosis treated with the pharmaceutical formulations object of this invention; L=liver, K=kidney, H=heart, Lu=lung, B=brain, S=Spleen M=muscle. […] This means that the synthetic peptides are harmless drugs for osteoporosis treatment, producing no adverse or secondary reactions at cellular or tissue level.

[6] = biodistribution of peptide marked with pertechnetate (99mTc); format: in vivo, Wistar rats
Method: To determine the bio distribution of the peptides object of this invention, they were marked using technetium in the form of pertechnetate (TcO4−). In order to perform the marking, a working solution which contained: 40 ug of the peptides object of this invention, 50 ul of tartrate (2 mg/ml of acetate buffer pH5), 10 μl of SnCl2 (2 mg/ml 0.1 N HCl), 50 μl of gentisic acid (1 mg/ml) and 50 μl of 99m Tc—Na TCO4− (5 mCi) was prepared. Male Wistar rats of 250 g of weight which were at a temperature of 22° C. with a photoperiod of 12 hours and relative humidity at 50% were used. Food and water was ad libitum. To assess bio distribution, groups of three rats were formed and injected intraperitoneally with 40 μl of the marked peptide. They were sacrificed by an overdose of anesthetic at 30’, 1, 3, 6 and 24 hours. Blood samples from the heart, lung, liver, spleen, kidneys, stomach, small intestine, large intestine, muscle, bone, thyroid, brain and tooth were collected. These organs were weighed on an analytical balance and subsequently placed in a NaI(TI) solid scintillation counter to detect the activity of each one of the organs. With this procedure, the percentage of the injected dose per gram of tissue (% ID/g) was obtained.

For AVIFM, the “resistance to compression of 5th lumbar vertebra, difference compared to healthy control” value [1] was 2%, the “μCT three-dimensional reconstruction of 5th lumbar vertebra” value [2] was “cancellous bone is present in almost the entire vertebral body” and the “histology of femur epiphysis microarchitecture” value [2] was “bone trabeculae forms a network structure similar to the microarchitecture of healthy control group; also recorded: full medullar spaces without evidence of osteoporotic spaces and with normal bone microarchitecture”. The “histology of the body of the 5th lumbar vertebra” value [2] was “cortical bone is observed similar to that of healthy Wistar rats”, the “cell proliferation with regard to the positive control (10% fetal bovine serum)” value [3] was 82% and the “filling of the critical-size calvarial defect with bone” value [4] was 100%.
In the case of MGTSSTDSQQAQHRRCSTSN, the “resistance to compression of 5th lumbar vertebra, difference compared to healthy control” value [1] is reported as 19%, the “μCT three-dimensional reconstruction of 5th lumbar vertebra” value [2] is reported as “cancellous bone is present in almost the entire vertebral body” and the “histology of femur epiphysis microarchitecture” value [2] is reported as “bone trabeculae forms a network structure similar to the microarchitecture of healthy control group; also recorded: full medullar spaces without evidence of osteoporotic spaces and with normal bone microarchitecture”. The “histology of the body of the 5th lumbar vertebra” value [2] was “cortical bone is observed similar to that of healthy Wistar rats”, the “histological alteration of liver, kidney, heart, lung, brain, spleen, muscle” value [5] was “no histological feature that indicates that peptide administration in physiological saline solution causes microscopic alteration in these tissues” and the “percentage of injected dose per gram of tissue (% ID/g)” value ([6]; bone, 30′) was 1.3%. For the same substance, the “percentage of injected dose per gram of tissue (% ID/g)” value ([6]; bone, 1 hour) was 1.4%, the “percentage of injected dose per gram of tissue (% ID/g)” value ([6]; bone, 24 hours) was 0.4% and the “percentage of injected dose per gram of tissue (% ID/g)” value ([6]; kidney, 1 hour) was 1.6%. For the same substance, the “percentage of injected dose per gram of tissue (% ID/g)” value ([6]; kidney, 3 hours) was 2.6%, the “percentage of injected dose per gram of tissue (% ID/g)” value ([6]; kidney, 6 hours) was 1.3% and the “percentage of injected dose per gram of tissue (% ID/g)” value ([6]; kidney, 24 hours) was 0.9%. The “percentage of injected dose per gram of tissue (% ID/g)” value ([6]; large intestine, 30′ after i.p. injection) was 3.6%, the “percentage of injected dose per gram of tissue (% ID/g)” value ([6]; large intestine, 24 hours) was 0.006% and the “percentage of injected dose per gram of tissue (% ID/g)” value ([6]; liver, 1 hour) was 3.4%. The “percentage of injected dose per gram of tissue (% ID/g)” value ([6]; liver, 24 hours) was 0.2%, the “cell proliferation with regard to the positive control (10% fetal bovine serum)” value [3] was 92% and the “filling of the critical-size calvarial defect with bone” value [4] was 100%.

From patent US20170088584A1, “USE OF […] DRUGS FOR OS[…] AND BONE REGENERATION” (UNIVERSIDAD NACIONAL AUTONOMA DE MEXICO, priority 2015, published 2017)
